# Assay results as given in article PMC5376326, “Inhibition of ANO1 by luteolin and its cytotoxicity in human prostate cancer PC-3 cells” (PLoS ONE, 2017).
# Several values for one entry are separate records, joined by “and”; a condition that tells them apart may be missing. Equal entries are not always repeated.
# Legend:
# [1] = biological target: T1, human ANO1 (abc) (Homo sapiens, UniProt Q5XXA6, DEL476-501); assay: YFP fluorescence quenching assay (iodide influx) in FRT cells expressing human ANO1; assay type: cell-based; settings: for IC50: FRT cells expressing ANO1 and YFP, ATP activation, mean ± S.E., n = 3, read-out: IC50, ANO1 inhibition (YFP fluorescence quenching)
# T1 sequence (Q5XXA6 with tags, fused parts or gaps isoform Q5XXA6-5 DEL539-564): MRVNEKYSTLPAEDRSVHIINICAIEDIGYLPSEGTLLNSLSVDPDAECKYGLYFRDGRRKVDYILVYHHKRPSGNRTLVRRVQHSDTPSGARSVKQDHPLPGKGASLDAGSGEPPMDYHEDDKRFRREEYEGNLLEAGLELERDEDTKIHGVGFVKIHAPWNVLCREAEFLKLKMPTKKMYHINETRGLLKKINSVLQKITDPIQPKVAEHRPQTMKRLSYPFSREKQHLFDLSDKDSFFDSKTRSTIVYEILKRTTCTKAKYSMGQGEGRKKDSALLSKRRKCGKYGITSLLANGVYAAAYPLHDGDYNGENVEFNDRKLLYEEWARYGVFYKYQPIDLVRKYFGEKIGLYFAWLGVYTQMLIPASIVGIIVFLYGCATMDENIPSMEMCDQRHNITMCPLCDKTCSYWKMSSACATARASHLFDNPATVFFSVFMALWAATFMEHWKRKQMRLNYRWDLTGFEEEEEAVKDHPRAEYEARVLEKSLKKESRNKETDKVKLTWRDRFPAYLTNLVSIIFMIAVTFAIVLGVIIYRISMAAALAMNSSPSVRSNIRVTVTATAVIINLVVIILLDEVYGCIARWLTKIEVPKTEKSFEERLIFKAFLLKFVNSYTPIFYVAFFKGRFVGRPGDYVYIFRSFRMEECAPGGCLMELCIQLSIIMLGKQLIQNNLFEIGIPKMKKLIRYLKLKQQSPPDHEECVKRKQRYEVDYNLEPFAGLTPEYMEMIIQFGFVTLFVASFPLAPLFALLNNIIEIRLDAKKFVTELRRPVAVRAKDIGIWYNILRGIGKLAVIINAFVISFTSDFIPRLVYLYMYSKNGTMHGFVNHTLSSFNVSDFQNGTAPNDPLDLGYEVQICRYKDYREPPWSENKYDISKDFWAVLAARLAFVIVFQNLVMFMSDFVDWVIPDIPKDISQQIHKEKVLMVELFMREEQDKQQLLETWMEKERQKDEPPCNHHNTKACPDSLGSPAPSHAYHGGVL
# Protocol: Fisher rat thyroid (FRT) cells were stably transfected with human ANO1 (abc) or mouse ANO2 and the halide sensor YFP as described in previous study. FRT cells were cultured in Coon`s modified F12 medium with 10% FBS, 2 mM L-glutamine, 100 units/ml penicillin and 100 μg/ml streptomycin at 37°C and 5% CO2. PC-3 cells were grown in RPMI 1640 medium supplemented with 10% FBS, 100 units/ml penicillin and 100 μg/ml streptomycin at 37°C and 5% CO2. There were populations of PC-3 cells with high and low expression of ANO1. To separate high and low levels of ANO1 expressing PC-3 cells, cells were stably transfected with the halide sensor YFP-H148Q/I152L/F46L and then the cells were plated on 96 well plates at 1 cell per well. After two weeks of incubation, high and low levels of ANO1 expressing PC-3 cells were separated by YFP quenching assay. ANO1 was activated by 100 μM ATP.
# ANO1 and YFP expressing FRT cells were plated in 96-well black-walled microplates (Corning Inc., Corning, NY) at a density of 20,000 cells per well. Assays were done using FLUOstar Omega microplate reader (BMG Labtech, Ortenberg, Germany) and MARS Data Analysis Software (BMG Labtech) as described in our previous study. Briefly, each well of 96-well plate was washed 3 times in PBS (200 μL/wash) and test compounds were added to each well at 25 μM final concentration. After 10 minutes incubation at 37°C, 96-well plates were transferred to the plate reader for fluorescence assay. Each well was assayed individually for ANO1-mediated I^- influx by monitoring YFP fluorescence continuously (400 ms per point) for 2 s (baseline), then 140 mM I^- solution containing 200 μM ATP was added at 2 s and then YFP fluorescence was recorded for 6 s. Initial iodide influx rate was determined from the initial slope of fluorescence decrease, by nonlinear regression, following infusion of iodide with ATP.
# [2] = test system: PC-3 cells; assay: Intracellular calcium measurement (Fluo-4) in PC-3 cells; assay type: cell-based, human; settings: 100 μM ATP
# Protocol: Intracellular calcium levels were monitored using Fluo-4 NW calcium assay kit (Invitrogen, Carlsbad, CA) as per the manufacturer's protocol in FRT and PC-3 cells. Briefly, the cells were cultured in a 96 well plate and incubated with 100 μL assay buffer including Fluo-4 NW. After 1 hour incubation, Fluo-4 fluorescence was measured with a FLUOstar Omega microplate reader equipped with syringe pumps and custom Fluo-4 excitation/emission filters (485/538 nm). Intracellular calcium increase was induced by application of 100 μM ATP.
# [3] = test system: ANO1; assay: Immunoblot of ANO1 protein levels in PC-3 cells; assay type: cell-based, human
# Protocol: Immunoblotting was performed as described previously. FRT and PC-3 cells were lysed with cell lysis buffer (50 mM Tris-HCl (pH 7.4), 1% Nonidet P-40, 0.25% sodium deoxycholate, 150 mM NaCl, 1 mM EDTA, 1 mM Na3VO4, and protease inhibitor mixture). Whole cell lysates were centrifuged at 15,000 g for 10 min at 4°C to remove the cell debris, and supernatant protein was separated by 4–12% Tris-glycine precast gel (KOMA BIOTECH, Seoul, Korea) and then transferred onto PVDF membrane (Millipore, Billerica, MA). Membrane was blocked with 5% non-fat skim milk in Tris-buffered saline including 0.1% Tween 20 (TBST) for 1 hour at room temperature. The membrane was then incubated overnight with primary ANO1 antibody (1:500 dilution, ab64085; Abcam Inc., Cambridge, MA). After washing three times with TBST, the blot was further incubated for 60 min at room temperature with an anti-rabbit secondary antibody (Santa Cruz Biotechnology, CA). The membrane was then washed three times with TBST and then visualized using the ECL Plus western blotting detection system (GE Healthcare, NJ).
# [4] = test system: ANO1; assay: Quantitative real-time PCR of ANO1 mRNA in PC-3 cells; assay type: cell-based, human
# Protocol: Total messenger RNA (mRNA) was extracted by using a TRIzol reagent (Invitrogen, Carlsbad, CA). Quantitative Real-time PCRs were performed using the StepOnePlus Real-Time PCR System (Applied Biosystems, CA) and Thunderbird SYBR qPCR mix (Toyobo, Osaka, Japan). The thermal cycling conditions comprised an initial step at 95°C for 5 minutes followed by 40 cycles at 95°C for 10 seconds, 55°C for 20 seconds, and 72°C for 10 seconds in a 96-well reaction plate. Primers used were as follows: ANO1-sense 5′-GGAGAAGCAGCATCTATTTG-3′, ANO1-antisense 5′ GATCTCATAGACAATCGTGC-3′, β-actin-sense 5′-GCAAAGACCTGTACGCCAACAC-3′ and β-actin-antisense 5′-ATCTCCTTCTGCATCCTGTC-3′. ANO1 mRNA levels were normalized to β-actin levels and the fold-change in gene expression was determined by using 2^-ΔΔCT method. Quantitative PCR experiments were carried out in triplicates.
Compound,IC50 [1],Effect on ATP-induced intracellular calcium increase [2],"Effect on ANO1 protein levels ([3]; PC-3 cells expressing high levels of ANO1, 24 hour, indicated concentrations)",Change of ANO1 gene expression levels ([4]; 10 μM),Block of ATP-induced ANO1 activation (YFP) ([1]; 100 μM),"Decrease of ANO1 protein levels ([3]; 10 μM, 24 hour, PC-3 cells expressing high levels of ANO1) [%]","Decrease of ANO1 protein levels ([3]; 30 μM, 24 hour, PC-3 cells expressing high levels of ANO1) [%]","Time-dependent change of ANO1 protein levels ([3]; 30 μM, PC-3 cells)",Increase of ANO1 mRNA expression levels ([4]; 10 μM),Change of ANO1 gene expression levels ([4]; 30 μM)
O=c1c(O)c(-c2ccc(O)cc2)oc2cc(O)cc(O)c12 [Kaempferol],14.55 ± 0.03 µM,did not alter,did not affect,slightly increased,,,,,,
O=c1cc(-c2ccc(O)c(O)c2)oc2cc(O)cc(O)c12 [luteolin],9.37 µM and ~9.4 µM,did not alter,,slightly increased,almost completely blocked,41.2 ± 1.5,63.1 ± 5.7,significantly decreased in a time-dependent manner,~ 1.3 fold,significantly decreased
